SMILES	melting point [°C]
Cn1cc(C(N)=O)c([N+](=O)[O-])n1	190 to 192
O=C1N(c2cc(Cl)cc(Cl)c2)C(=O)C2(Cc3ccc(Br)cc3)CCCCN12 (stereo unspecified)	129
N#CC1Cc2ccc([N+](=O)[O-])cc2C1 (stereo unspecified)	80 to 82
COc1ccc(N2CCOCC2)c2sc(-c3nc4ccc(N5CCOCC5)nc4[nH]3)nc12	260 to 262
COc1cc(CNC(C)=O)c(Cl)cc1O	> 300
CC(C)(C)OC(=O)NC(C(=O)O)C1=CSCCO1 (stereo unspecified)	160
CC(C)(C)OC(=O)NC(C(=O)O)c1c[nH]c2ccccc12 (stereo unspecified)	144
CCC(=O)Nc1c(C)c2c(c(Cc3ccc(C(C)C)cc3)c1C)OCC2	177 to 178
Cc1ccc(-c2cncc(OC3SCC(O)C(O)C3O)c2)cc1F (stereo unspecified)	213
O=C(NC1Cc2ccccc2C1)C(F)(F)F	160
O=C(NCC1CCCCC1)c1c(Cl)ccc2nc(N3CC(NCCO)C3)ccc12	150 to 151
Nc1cc(N2CCNCC2)c(F)cc1[N+](=O)[O-]	120 to 121
Clc1ccc2c3c(cnc2c1)OCCN3	219 to 220
CN1CCC(=C2c3cc(Br)ccc3C=Cn3cccc32)CC1	138 to 142
O=[N+]([O-])c1nccn1COC(CO)CO	88
Cc1nnc(-c2ccc3occ(-c4ccc(C(F)(F)F)cc4)c3c2)o1	190 to 191
Cc1c(C2=CCC(c3ccccc3)(N(C)C)CC2)n(CC2CO2)c2ccccc12 (stereo unspecified)	147 to 150
CC(C)c1cc2c(=O)n3cc(C#N)ccc3nc2s1	225 to 226
CC(C)(C)OC(=O)NCCc1ccnc(C#N)c1	70.5 to 71.2
CC(C)(C)OC(=O)C(N)CCNC(=O)c1ccc2c(c1)C(=O)c1ccccc1C2=O (stereo unspecified)	173 to 175
COc1c(C)cc(N2CCN(c3ccc(-n4c(C)n[nH]c4=O)cc3)CC2)cc1C	280
Cc1ccc(-c2cc(Cl)cc3c2NC(CN)CO3)c(C(F)(F)F)c1 (stereo unspecified)	98
COc1ccc2c(c1)CNc1cc(Cl)ccc1O2	111 to 113
CCCCCCCCCCCC(=O)OC[C@H]1OCC(=NO)[C@@H](O)[C@@H]1O	90 to 101
COc1ccc(C(=O)Nc2ccccc2)cc1Oc1ccccc1	200 to 201
Cc1cc(-c2nc[nH]n2)ccc1-c1cnc2[nH]c(=O)n(CCC3CCOCC3)c2n1	258 to 260

SMILES	melting point [°C]
CC(C)c1cccc(C(C)C)c1NC(=O)C(N)Cc1ccc(OCc2ccccc2)cc1 (stereo unspecified)	117 to 122
CCCCOc1cc(=O)n(CCCC)c2ccccc12	50 to 52
N#CC(F)(F)C(O)(Cn1cncn1)c1ccc(F)cc1F (stereo unspecified)	130 to 132
CC(=O)Nc1ccc(CCN(C)C)c2cn[nH]c12	223
CCCCc1nc2ccccn2c1Cc1ccc(-c2ccccc2C(=O)O)cc1	196
Cc1cc(C)cc(N(CCN)Cc2ccc3nc(NCCCN4CCOCC4)n(Cc4nc(C)ccc4O)c3c2)c1	196
Cc1ccc(C)n1-c1cc2c(cc1C(F)(F)F)[nH]c(=O)c(=O)n2CCC(=O)NCc1ccccc1	260 to 262
O=C(O)c1ccc2cc(OCCN3CCN(c4ccc(Cl)cc4)CC3)ccc2c1	197 to 199
C#CC(O)COc1ccc(F)cc1 (stereo unspecified)	46 to 47
CC1(C)Cc2sccc2C=[N+]1[O-]	130 to 131
CC(C#CCCCc1ccccc1)N(O)C(N)=O (stereo unspecified)	78 to 81
Cc1nc(-c2ccc3c(c2)CCCC3)co1	53 to 54
N#Cc1ccc(CC23CCCN2C(=O)N(c2cc(Cl)c(N)c(Cl)c2)C3=O)cc1 (stereo unspecified)	103
Cc1ccc(C(O)=C(C#N)C(=O)C(C)(C)C)c([N+](=O)[O-])c1	99 to 102
CC(=O)NCC1CC1c1cccc2nc(C(F)(F)F)cn12 (stereo unspecified)	135 to 137
COc1cc(NC(=O)c2cccc(CCl)c2)cc(OC)c1OC	138 to 145
O=c1[nH]c2cc(Cl)ccc2c(O)c1-c1cccc(Cc2ccc(O)cc2)c1	288 to 292
CCCOc1ccc(S(=O)(=O)Cl)cc1C(N)=O	122 to 129
Clc1ccc(-c2nc3ccccc3nc2Cl)c(Cl)c1	140 to 150
COc1ccc(C2=NN(C3CCN(S(=O)(=O)c4cccc(C(=O)O)c4)CC3)C(=O)C2(C)C)cc1OC	244
NS(=O)(=O)NCC1CCc2ccccc2O1 (stereo unspecified)	100 to 101
Cn1c(=O)cc(-c2cccc(Cl)c2)c2cc(C(=O)c3ccc(Cl)cc3)ccc21	155
COc1nc(C)c(C(C)=O)cc1NC(=S)N1CCN(c2cccc(O)c2)CC1	114 to 115
ClCCOc1ccc(Br)cc1	54 to 56
CC(C)(C)OC(=O)N1CCc2c(n(CCOc3ccccc3)c3c(Cl)c(Cl)ccc23)CC1	138 to 140
Cc1cc(Cn2nnc(C(N)=O)c2N)cc(Cl)c1C(=O)c1ccc(C(F)(F)F)cc1	201 to 202

SMILES	melting point [°C]
Cc1ccc2c(c1)[C@H](Nc1nc(N)nc(C(F)F)n1)[C@@H](C)C2	132 to 134
Cc1csc(-c2ccc3c(ccn3S(=O)(=O)c3ccccc3)c2)n1	209 to 210
NC(=O)c1cc(-n2cnn(Cc3ccc(F)cc3)c2=O)n[nH]1	> 270
O=c1oc2c(O)c(O)ccc2c2cc(O)c(O)cc12	> 250
O=S1(=O)N=C(NCC2CC2)Nc2ccc(Cl)cc21	288 to 290
Cc1c(-c2ccc(C#N)cc2)c(C#N)c(C2CC2)n1Cc1cnc(Cl)c(COC(=O)CCC(=O)O)c1	188 to 189
COc1ccc(CCCC(=O)O)cc1NC(=O)C[C@H]1O[C@H](c2cccc(OC)c2OC)c2cc(Cl)ccc2N(CC(C)(C)CO)C1=O	119 to 121
C=CC[C@@H]1C[C@@H](COc2ccc(-c3ccc(C#N)cc3)cc2)N(CCCC2CCCCC2)C1=O	157 to 159
CN(C)c1c(O)ccc2c1CCC1C2CCC2(C)C(=O)CCC12 (stereo unspecified)	155 to 156
CCCCCCCCCCCCCCCCS(N)(=O)=O	98 to 100
O=C(O)c1c(Cl)c(Cl)cc([N+](=O)[O-])c1Cl	149 to 151
Cc1cc(N2CCN(c3ccc(C(F)(F)F)cn3)CC2)cc(C)c1O	143 to 144
CC(C)n1cnc(N2CCc3ccccc3CC2)c(C#N)c1=O	152 to 154
COc1cc(Nc2c(C#N)cnc3cc(-c4coc(CN5CCN(C)CC5)c4)c(OC)cc23)c(Cl)cc1Cl	179 to 181
N#Cc1sccc1[N+](=O)[O-]	87 to 88
O=C(Oc1ccc2c(OC(=O)c3ccc(O)c(O)c3)c3cc(OC(=O)c4ccc(O)c(O)c4)ccc3cc2c1)c1ccc(O)c(O)c1	233
CC(C)(C)[Si](C)(C)Oc1cccc(C(O)C(c2ccccc2)C2SCCCS2)c1 (stereo unspecified)	75 to 76
O=C(NC(=O)c1ccccc1)NC1CCN(CC(=O)C2COc3ccccc3O2)CC1 (stereo unspecified)	160 to 161
Cc1nc(-c2ccc(I)cc2)no1	121 to 122
O=c1c2cc(F)c(F)cc2[nH]c2c1cnn2-c1ccccn1	> 300
CCOc1cc2ncc(C#N)c(Nc3ccc4c(c3)S(=O)(=O)C=C4)c2cc1OCC	155 to 160
Cn1ccc(-c2ccc(C(=O)N3Cc4cccnc4Nc4ccccc43)c(Cl)c2)n1	196 to 197
O=C1CCCN(C(=O)c2ccc([N+](=O)[O-])cc2Cl)c2ccccc21	140 to 143
CCCCNC(=O)c1cc([N+](=O)[O-])cnc1C	98 to 99
COc1cc(OC)c2c(=O)[nH]c(-c3cc(C)c(OCCn4ccnc4)c(C)c3)nc2c1	218 to 219
O=C1CCCN1c1cccc(Cc2n[nH]c(=O)c3ccccc23)c1	206 to 207

SMILES	melting point [°C]
O=C1NCCNc2c1sc1ccccc21	210 to 212
C#CCOC(=O)N(I)C(C)C(=O)OC (stereo unspecified)	100 to 102
CC(C)C(NC(=O)OCc1cccnc1)C(=O)NC(Cc1ccccc1)C(O)C(O)C(Cc1ccccc1)NC(=O)C(NC(=O)OCc1cccnc1)C(C)C (stereo unspecified)	202 to 207
CC(C)(C)OC(=O)NCCNS(=O)(=O)c1ccc(Br)s1	106
CC(C)(C)c1nc(C=O)cc(N)c1F	129 to 130
CCc1ccc(Nc2ncc(Cc3ccc(O)nc3)c3ncccc23)cc1Br	262 to 265
CC(=O)Nc1ccc(C)cc1Oc1c(NCc2ccccc2)cc(C(=O)O)cc1S(N)(=O)=O	203
CNC(=O)Nc1cc(C(C)(C)C)c2c(c1)C(C)(C)CO2	193 to 194
CC(O)C(=O)Nc1ccc(C2=NNC(=O)CC2C)cc1 (stereo unspecified)	181 to 182
c1ccc(Cn2cc3c(c2)OCCO3)cc1	69 to 70
COc1cc(OC)c(-c2cc3ccccc3n2C)cc1C=CC(=O)c1ccc(S(=O)(=O)N(C)C)cc1	120 to 122
COc1ccc(-c2nc(C)c(Br)[nH]2)cc1	179 to 184
O=C1CCC(N2Cc3cc(CNC(=O)Nc4ccccc4)ccc3C2=O)C(=O)N1 (stereo unspecified)	243 to 245
N#CCc1c[nH]c2ccc(NC(=O)Nc3ccccc3)cc12	217 to 219
Nc1cc(OCc2ccccc2)c2ncccc2c1	183 to 185
CN1CCN(C2=Nc3cc(Cl)cc4ccn(c34)-c3ccccc32)CC1	184 to 186
N=c1n(CCO)c2ccccc2n1-c1ccccc1	210 to 212
COC(=O)c1ccc(CNc2cc(-c3cc4cc(F)c(F)cc4[nH]3)ccc2OC)cc1	168 to 170
CC(C)(Cc1ccccc1)C(NC(=O)c1ccncc1)Nc1c(Nc2cccnc2)c(=O)c1=O (stereo unspecified)	251 to 254
Fc1cc(F)cc(Oc2ccc(OCc3ccc(Cl)cc3)c(Cl)c2)c1	95.3
CC(C)c1ccc(-c2nc(COc3ccc(OC(C)(C)C(=O)O)cc3)no2)cc1	103
Nc1cc(Oc2ccc(NC(=O)Nc3ccc(-c4cccnc4)c(C(F)(F)F)c3)cc2)ncn1	132 to 135
COc1cccc(NS(=O)(=O)c2cccc(C=CC(=O)NO)c2)c1	137
